In patent US5824771A, “Cyclic CRF agonists” (The Salk Institute for Biological Studies, priority 1997, dated 1998):
Bridge positions count the residues as written; N and C are the ends. Square brackets hold non-standard residues; d marks the D form. Peptide text beside a SMILES is read from it. Nle = CCCC[C@H](N)C(=O)O

Legend:
[1] = Relief of inflammation on administration; format: in vivo; details: administration of the peptide
[2] = system: ACTH and β-END-LI secretion; test: Secretion of ACTH and β-END-LI on administration of the peptide (in vivo testing)
Method: (§1) The cyclic CRF agonists are examined for their effects on the secretion of ACTH and β-endorphin in vitro and also in vivo. […] In vivo testing is carried out using the general procedure set forth in C. Rivier et al., Science, 218, 377 (1982).

[3] = Lowering of blood pressure on peripheral or iv administration; format: in vivo; details: iv injection / administered intravenously
[4] = system: rat anterior pituitary cells; test: In vitro stimulation of ACTH and β-endorphin secretion by cultured rat pituitary cells, potency compared with oCRF (Standard) or r/hCRF; format: cell-based; details: relative to the laboratory Standard (synthetic oCRF); cultured rat pituitary cells; limits in parentheses
Method: as §1

Compound	relief of inflammation, in words [1]	stimulation of secretion of ACTH and β-END-LI on administration of the peptide, in words [2]	lowering of blood pressure on iv injection, in words [3]	in vitro potency to stimulate secretion of ACTH relative to the Standard [4]
CCCC[C@H](NC(=O)[C@H](CCC(=O)O)NC(=O)[C@@H](NC(=O)[C@H](CCCC)NC(=O)[C@H](CC(N)=O)NC(=O)[C@H](CCCNC(=N)N)NC(=O)[C@H](CC(C)C)NC(=O)[C@H](CC(C)C)NC(=O)[C@H](Cc1c[nH]cn1)NC(=O)[C@@H](Cc1ccccc1)NC(=O)[C@@H](NC(=O)[C@H](CC(C)C)NC(=O)[C@H](CC(=O)O)NC(=O)[C@@H](NC(=O)[C@H](CO)NC(=O)[C@@H](NC(=O)[C@H]1CCCN1C(=O)[C@@H]1CCCN1C(C)=O)[C@@H](C)CC)[C@@H](C)CC)[C@@H](C)O)[C@@H](C)CC)C(=O)N[C@@H](C)C(=O)N[C@@H](CCCNC(=N)N)C(=O)N[C@@H](CC(N)=O)C(=O)N[C@@H](CCC(=O)O)C(=O)N[C@@H](CC(N)=O)C(=O)N[C@@H](CCC(N)=O)C(=O)N[C@@H](CCCNC(=N)N)C(=O)N[C@@H](CCC(=O)O)C(=O)N[C@H]1CCC(=O)NCCCC[C@@H](C(=O)N[C@@H](CC(N)=O)C(=O)N[C@@H](CCCNC(=N)N)C(=O)N[C@@H](CCCCN)C(=O)N[C@@H](Cc2ccc(O)cc2)C(=O)N[C@@H](CC(C)C)C(=O)N[C@@H](CC(=O)O)C(=O)N[C@@H](CCC(=O)O)C(=O)N[C@H](C(N)=O)C(C)C)NC(=O)[C@@H](Cc2c[nH]cn2)NC(=O)[C@H](C)NC1=O [Example 8 A, (cyclo 30-33)[Ac-Pro^4, D-Pro^5, D-Phe^12, Nle^18,21, Glu^30, D-His^32, Lys^33]-Carp Urotensin I(4-41)] (Ac-P[dP]ISIDLT[dF]HLLRN[Nle]IE[Nle]ARNENQREEA[dH]KNRKYLDEV-NH2; lactam 27-30)	relieves inflammation	–	–	–
CCCC[C@H](NC(=O)[C@H](CCCCN)NC(=O)[C@H](CCCNC(=N)N)NC(=O)[C@H](CC(C)C)NC(=O)[C@H](CC(C)C)NC(=O)[C@H](CCC(=O)O)NC(=O)[C@@H](CC(C)C)NC(=O)[C@H](CO)NC(=O)[C@H](CC(C)C)NC(=O)[C@H](CC(=O)O)NC(=O)[C@@H](NC(=O)[C@H](CO)NC(=O)[C@@H](NC(=O)[C@H]1CCCN1C(=O)[C@@H]1CCCN1C(C)=O)[C@@H](C)CC)[C@@H](C)CC)C(=O)N[C@H](C(=O)N[C@@H](CCC(=O)O)C(=O)N[C@H](C(=O)N[C@@H](CCC(=O)O)C(=O)N[C@@H](CCCCN)C(=O)N[C@@H](CCC(N)=O)C(=O)N[C@@H](CCC(=O)O)C(=O)N[C@@H](CCCCN)C(=O)N[C@@H](CCC(=O)O)C(=O)N[C@@H](CCCCN)C(=O)N[C@@H](CCC(N)=O)C(=O)N[C@H]1CCC(=O)NCCCC[C@@H](C(=O)N[C@@H](CC(N)=O)C(=O)N[C@@H](CCCNC(=N)N)C(=O)N[C@@H](CC(C)C)C(=O)N[C@@H](CC(C)C)C(=O)N[C@@H](CC(C)C)C(=O)N[C@@H](CC(=O)O)C(=O)N[C@H](C(=O)N[C@H](C(N)=O)[C@@H](C)CC)[C@@H](C)O)NC(=O)[C@@H](Cc2c[nH]cn2)NC(=O)[C@H](C)NC1=O)[C@@H](C)CC)[C@@H](C)CC [Example 8 B, (cyclo 29-32)[Ac-Pro^3, D-Pro^4, D-Leu^11, Nle^17, Glu^29, D-His^31, Lys^32]-sauvagine(3-40)] (Ac-P[dP]ISIDLS[dL]ELLRK[Nle]IEIEKQEKEKQEA[dH]KNRLLLDTI-NH2; lactam 27-30)	relieves inflammation	–	–	–
CCCC[C@H](NC(=O)[C@H](CCC(=O)O)NC(=O)[C@H](CC(C)C)NC(=O)[C@H](CCCC)NC(=O)[C@H](CCC(=O)O)NC(=O)[C@H](CCCNC(=N)N)NC(=O)[C@H](CC(C)C)NC(=O)[C@H](CC(C)C)NC(=O)[C@H](Cc1c[nH]cn1)NC(=O)[C@@H](Cc1ccccc1)NC(=O)[C@@H](NC(=O)[C@H](CC(C)C)NC(=O)[C@H](CC(=O)O)NC(=O)[C@H](CC(C)C)NC(=O)[C@H](CO)NC(=O)[C@@H](NC(=O)[C@H]1CCCN1C(=O)[C@@H]1CCCN1C(C)=O)[C@@H](C)CC)[C@@H](C)O)C(=O)N[C@@H](C)C(=O)N[C@@H](CCCCN)C(=O)N[C@@H](C)C(=O)N[C@@H](CCC(=O)O)C(=O)N[C@@H](CCC(N)=O)C(=O)N[C@@H](CCC(=O)O)C(=O)N[C@@H](C)C(=O)N[C@@H](CCC(=O)O)C(=O)N[C@H]1CCC(=O)NCCCC[C@@H](C(=O)N[C@@H](CC(N)=O)C(=O)N[C@@H](CCCNC(=N)N)C(=O)N[C@@H](CC(C)C)C(=O)N[C@@H](CC(C)C)C(=O)N[C@@H](CC(C)C)C(=O)N[C@@H](CCC(=O)O)C(=O)N[C@@H](CCC(=O)O)C(=O)N[C@@H](C)C(N)=O)NC(=O)[C@@H](Cc2c[nH]cn2)NC(=O)[C@H](C)NC1=O [Example 8 C, (cyclo 30-33)[Ac-Pro^4, D-Pro^5, D-Phe^12, Nle^18,21, Glu^30, D-His^32, Lys^33]-α-helical CRF(4-41)] (Ac-P[dP]ISLDLT[dF]HLLRE[Nle]LE[Nle]AKAEQEAEEA[dH]KNRLLLEEA-NH2; lactam 27-30)	relieves inflammation	–	–	–
CCCC[C@H](NC(=O)[C@H](CCC(=O)O)NC(=O)[C@@H](NC(=O)[C@H](CCCC)NC(=O)[C@H](CC(N)=O)NC(=O)[C@H](CCCNC(=N)N)NC(=O)[C@H](CC(C)C)NC(=O)[C@H](CC(C)C)NC(=O)[C@H](Cc1c[nH]cn1)NC(=O)[C@@H](Cc1ccccc1)NC(=O)[C@@H](NC(=O)[C@H](CC(C)C)NC(=O)[C@H](CC(=O)O)NC(=O)[C@@H](NC(=O)[C@H](CO)NC(=O)[C@@H](NC(=O)[C@H]1CCCN1C(=O)[C@@H]1CCCN1C(C)=O)[C@@H](C)CC)[C@@H](C)CC)[C@@H](C)O)[C@@H](C)CC)C(=O)N[C@@H](C)C(=O)N[C@@H](CCCNC(=N)N)C(=O)N[C@H](C(=O)N[C@@H](CCC(=O)O)C(=O)N[C@@H](CC(N)=O)C(=O)N[C@@H](CCC(=O)O)C(=O)N[C@@H](CCCNC(=N)N)C(=O)N[C@@H](CCC(=O)O)C(=O)N[C@H]1CCC(=O)NCCCC[C@@H](C(=O)N[C@@H](CC(N)=O)C(=O)N[C@@H](CCCNC(=N)N)C(=O)N[C@@H](CCCCN)C(=O)N[C@@H](Cc2ccc(O)cc2)C(=O)N[C@@H](CC(C)C)C(=O)N[C@@H](CC(=O)O)C(=O)N[C@@H](CCC(=O)O)C(=O)N[C@H](C(N)=O)C(C)C)NC(=O)[C@@H](Cc2c[nH]cn2)NC(=O)[C@H](C)NC1=O)[C@@H](C)CC [Example 8 E, (cyclo 30-33)[Ac-Pro^4, D-Pro^5, D-Phe^12, Nle^18,21, Glu^30, D-His^32, Lys^33]-sucker urotensin(4-41)] (Ac-P[dP]ISIDLT[dF]HLLRN[Nle]IE[Nle]ARIENEREEA[dH]KNRKYLDEV-NH2; lactam 27-30)	relieves inflammation	–	–	–
(cyclo 30-33)[Ac-Pro^4, D-Phe^12, CML^14, Nle^21,38, Glu^30, D-His^32, Lys^33 ]-r/hCRF(4-41) [Example 9 A]	–	stimulates the secretion of ACTH and β-END-LI	lowers blood pressure	–
(cyclo 30-33)[Ac-Pro^4, D-Phe^12, CML^15, Nle^21,38, Glu^30, D-His^32, Lys^33 ]-r/hCRF(4-41) [Example 9]	–	stimulates the secretion of ACTH and β-END-LI	lowers blood pressure	–
(cyclo 30-33)[Ac-Pro^4, D-Phe^12, CML^17, Nle^21,38, Glu^30, D-His^32, Lys^33 ]-r/hCRF (4-41) [Example 9 E]	–	stimulates the secretion of ACTH and β-END-LI	lowers blood pressure	–
(cyclo 30-33)[Ac-Pro^4, D-Phe^12, CML^19, Nle^21,38, Glu^30, D-His^32, Lys^33 ]-r/hCRF (4-41) [Example 9 B]	–	stimulates the secretion of ACTH and β-END-LI	lowers blood pressure	–
(cyclo 30-33)[Ac-Pro^4, D-Phe^12, Nle^21,38, CML^27, Glu^30, D-His^32, Lys^33 ]-r/hCRF(4-41) [Example 9 C]	–	stimulates the secretion of ACTH and β-END-LI	lowers blood pressure	–
(cyclo 30-33)[Ac-Pro^4, D-Phe^12, Nle^21,38, Glu^30, D-His^32, Lys^33, CML^37 ]-r/hCRF(4-41) [Example 9 D]	–	stimulates the secretion of ACTH and β-END-LI	lowers blood pressure	–
(cyclo 30-33)[Ac-Pro^4, D-Pro^5, D-Phe^12, Nle^21,38, CML^27, Glu^30, D-His^32, Lys^33 ]-r/hCRF(4-41) [Example 9 C D-Pro^5 analog]	–	stimulates the secretion of ACTH and β-END-LI	–	about 7 times
(cyclo 30-33)[Ac-Pro^4,D-Phe^12, Nle^21,38, Glu^30, D-Amp^32, Lys^33 ]-r/hCRF(4-41) [Example 6 D]	–	stimulates the secretion of ACTH and β-END-LI	lowers blood pressure	–
(cyclo 30-33)[Ac-Ser^7, D-Phe^12, CML^18,27, Nle^21,38, Glu^30, Lys^33 ]-r/hCRF(7-41) [Example 20 C]	–	stimulates the secretion of ACTH and β-END-LI	lowers blood pressure	–
